From ChEMBL document CHEMBL6178020, “Harder than Metal: Challenging Antimicrobial Resistance with Metallo-β-lactamase Inhibitors” (J Med Chem, 2025)
pIC50, pKi: −log10 of the molar value. Values belong to the compound of their own block, whether it stands above or below them.

Assays:
Serratia marcescens [1] = assay: Antibacterial activity against Serratia marcescens expressing IMP-1 assessed as bacterial growth inhibition in presence of IPM; type: functional
Klebsiella pneumoniae [2] = assay: Antibacterial activity against Klebsiella pneumoniae expressing VIM-1 assessed as bacterial growth inhibition in presence of IPM; type: functional
Escherichia coli [3] = assay: Antibacterial activity against Escherichia coli expressing NDM-1 assessed as bacterial growth inhibition in presence of IPM; type: functional
[4] = target: T1, Metallo-beta-lactamase type 2 (Bacteria, UniProt C7C422); assay: Inhibition of Metallo-beta-lactamase NDM-1 (unknown origin)
[5] = target: T1, Metallo-beta-lactamase type 2; assay: Inhibition of N-terminal NDM-1 (unknown origin) extracted from Escherichia coli BL21; details: for pIC50: read-out: IC50
Escherichia coli [6] = assay: Antibacterial activity against carbapenem-resistant Escherichia coli IHMA 997800 infected in mouse assessed as fold reduction in bacterial load at 10 mg/kg, sc measured for 24 hrs in presence of Meropenem; type: functional
Escherichia coli [7] = assay: Antibacterial activity against carbapenem-resistant Escherichia coli IR57 infected in mouse assessed as fold reduction in bacterial load at 10 mg/kg, sc measured for 24 hrs in presence of Meropenem; type: functional
Escherichia coli [8] = assay: Antibacterial activity against carbapenem-resistant Escherichia coli […] infected in mouse assessed as fold reduction in bacterial load at 10 mg/kg, sc measured for 24 hrs in presence of Meropenem; type: functional
Klebsiella pneumoniae [9] = assay: Antibacterial activity against carbapenem-resistant Klebsiella pneumoniae B68-1 infected in mouse assessed as fold reduction in bacterial load at 10 mg/kg, sc measured for 24 hrs in presence of Meropenem; type: functional
[10] = target: T1, Metallo-beta-lactamase type 2; assay: Binding affinity to N-terminal NDM-1 (unknown origin) extracted from Escherichia coli BL21 assessed as inhibition constant
[11] = target: T1, Metallo-beta-lactamase type 2; assay: Inhibition of NDM-1 (unknown origin)
Escherichia coli [12] = assay: Antibacterial activity against Escherichia coli expressing NDM-1 assessed as bacterial growth inhibition; type: functional
Klebsiella pneumoniae [13] = assay: Antibacterial activity against Klebsiella pneumoniae expressing VIM-1 assessed as bacterial growth inhibition; type: functional
Serratia marcescens [14] = assay: Antibacterial activity against Serratia marcescens expressing IMP-1 assessed as bacterial growth inhibition; type: functional

T1 sequence (C7C422 whole entry): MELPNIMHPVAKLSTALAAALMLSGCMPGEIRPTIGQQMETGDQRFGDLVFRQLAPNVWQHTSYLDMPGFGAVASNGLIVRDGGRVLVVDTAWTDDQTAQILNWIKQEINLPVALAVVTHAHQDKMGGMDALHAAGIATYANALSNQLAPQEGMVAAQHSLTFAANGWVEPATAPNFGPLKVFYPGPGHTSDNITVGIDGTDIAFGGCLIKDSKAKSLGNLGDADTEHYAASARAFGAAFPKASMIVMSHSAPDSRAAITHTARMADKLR

pIC50 [4]: 4.12
Structure (SMILES): O=C(O)[C@H]1CCCN1C(=O)C(CS)CS

pIC50 [4]: 6.55
Structure (SMILES): O=C(O)CN1CCN(CC(=O)O)CCN(CC(=O)O)CC1

pIC50 [11]: 7.46
Structure (SMILES): NS(=O)(=O)c1nccc(-c2ccc(CO)cc2)c1-c1nn[nH]n1
MITC95 (Serratia marcescens [1]): 5.19 µM | MITC95 (Klebsiella pneumoniae [2]): 11.76 µM | MITC95 (Escherichia coli [3]): 0.558 µM

pIC50 [4]: 4.69
Structure (SMILES): C[C@H](CS)C(=O)N1CCCCC[C@@H]1C(=O)O

pIC50 [5]: 7.10
Structure (SMILES): Nc1cccc(-c2cc(C(=O)O)nc(C(=O)O)c2)c1

pIC50 [4]: 4.70
Structure (SMILES): C[C@H](CS)C(=O)N1CCC(CC(=O)O)CC1

pIC50 [4]: 5.16
Structure (SMILES): C[C@H](CS)C(=O)N1CCCC[C@@H]1C(=O)O

pIC50 [4]: 5.31
Structure (SMILES): C[C@H](CS)C(=O)N1CCC(C(=O)O)CC1

pIC50 [4]: < 3.52
Structure (SMILES): C[C@H](CS)C(=O)N1Cc2ccccc2C[C@@H]1C(=O)O

pIC50 [4]: 5.34
Structure (SMILES): C[C@H](CS)C(=O)N1CCc2ccccc2[C@@H]1C(=O)O

pIC50 [4]: 4.95
Structure (SMILES): C[C@H](CS)C(=O)N1CCC(C(N)=O)CC1

Continued, compound first:

Structure (SMILES): Cc1ccc(-c2cccc(S(N)(=O)=O)c2-c2nnn[nH]2)cc1
MITC95 (Serratia marcescens [1]): 13.8 µM | MITC95 (Klebsiella pneumoniae [2]): 127 µM | MITC95 (Escherichia coli [3]): 1.48 µM

Structure (SMILES): C[C@H](CS)C(=O)N1CCC[C@H](C(=O)O)C1
pIC50 [4]: 4.55

Structure (SMILES): N[C@H](CN[C@H](CN[C@@H](CC(=O)O)C(=O)O)C(=O)O)C(=O)O
pIC50 [4]: 5.40

Structure (SMILES): C[C@@H](c1cccc2c(-c3ccc(CS(C)(=O)=O)c(F)c3)c(C(=O)O)[nH]c12)N1CC2(CC(CN)C2)OC1=O (stereo not given in full)
IC50 ([5]; read-out: pIC50 (converted)): < 1 nM | fold change (FC) (Escherichia coli [6]): 7 | fold change (FC) (Escherichia coli [7]): 7 | fold change (FC) (Escherichia coli [8]): 7 | fold change (FC) (Klebsiella pneumoniae [9]): 7

Structure (SMILES): N=C(N)NNC(=O)Nc1c(F)cc(S(=O)(=O)Nc2scnc2C(=O)O)cc1F
pKi [10]: 7.40

Structure (SMILES): O=C(O)CN1CCN(CC(=O)O)CCN(CC(=O)O)CCN(CC(=O)O)CC1 [TETRAXETAN]
pIC50 [4]: 5.87

Structure (SMILES): O=C(O)CNC(=O)C(CS)Cc1ccccc1 (stereo not given) [THIORPHAN]
pIC50 [4]: 5.74

Structure (SMILES): COc1ccc(Cl)cc1-c1c(C(=O)O)[nH]c2c1CCc1ccccc1-2
pIC50 [5]: 7.30

Structure (SMILES): C[C@@H](O)[C@H]1C(=O)N2C(C(=O)O)=C(SCCNC=N)C[C@H]12 [IMIPENEM ANHYDROUS]
MITC95 (Escherichia coli [12]): 32 µg/mL | MITC95 (Klebsiella pneumoniae [13]): 64 µg/mL | MITC95 (Serratia marcescens [14]): 16 µg/mL

Structure (SMILES): O=C(O)c1ncsc1NS(=O)(=O)c1cccnc1
pKi [10]: 6.10

Structure (SMILES): C[C@H](CS)C(=O)N1CCC(CC(N)=O)CC1
pIC50 [4]: 4.55

Structure (SMILES): OCC(S)CS (stereo not given) [DIMERCAPROL]
pIC50 [4]: 5.89

Structure (SMILES): Nc1cc(-c2nnn[nH]2)c(S(N)(=O)=O)cc1S(N)(=O)=O
pIC50 [11]: 7.48
